Measurements published in patent US20070264363A1, “Molluscicidal and Anti-Barnacle Compounds” (priority 2003, published 2007).
Where “and” joins values, the source holds several entries; their conditions need not be identical. Equal values may be shown once.

Tests used:
[1] = test system: D. reticulatum slugs; test: Leaf disc assay (no choice-feeding bioassay on lettuce leaf discs); type: in vivo; settings: for amount of lettuce leaf consumed was reduced: solubilisation in aqueous tween 80 (0.5%)
Procedure: Adult D. reticulatum were collected from nearby fields and maintained in plastic trays lined with moist, unbleached, absorbent paper They were housed in the dark and at a constant temperature of 10°±1° C. Slugs were regularly fed on a mixture of iceberg lettuce and carrots. Slugs, with a weight 300-600 mg, were pre-starved for 24 hours and maintained at a constant temperature of 15°±1° C. prior to testing.
The technique described here is a no choice-feeding bioassay using circular discs prepared from lettuce leaves. Selected terpenes were tested against D. reticulatum slugs and evaluated for their repellent/antifeedant and molluscicidal properties.
Lettuce leaf discs (1.4 cm^2) were placed in petri dishes lined with water saturated filter paper ([…] diameter). A known concentration of terpene oil, solubilised in the appropriate media, was prepared and a fixed volume (50 μl) added by pipette, onto individual lettuce leaf discs. Any residual solvent was left to evaporate for a minimum time of 30 iminutes.
Slugs, previously starved for 24 hours, were introduced to the petri dishes and placed in an environmentally controlled chamber (15° C.: 12 hours day, 15° C.: 12 hours night) for 24 hours.
The amount of leaf disc damaged (eaten) was quantified by comparing digital photographs of treated leaf discs with untreated (control) leaf discs, using photographic computer software. The experiment was replicated 20 times for each terpene.
To compare the change in feeding behaviour for different treatments, the leaf damage data was corrected for the control, using the repellency index equation below. [formula]
The antifeedant effect of various media was determined by comparison to untreated leaf discs. A positive R I value indicates a reduction in feeding (antifeedant/repellent) whereas a negative value indicates an increase in feeding behaviour (phagostimulant). Corrections for mortality were done the Abbotts formula (Abbott, 1925). [formula] Bioassay Assay Results: Leaf Disc Assay

[2] = test system: eggs of D. reticulatum; settings: applied at a rate of 4.6 kg/ha; cited from earlier work
[3] = test system: field slug, D. reticulatum; settings: in vivo; cited from earlier work
[4] = test system: garden snail H. aspersa; test: Spray trial with ocimene and bisabolol formulations (Example 8); type: in vivo; settings: for Repellency Index: RI relative to water
Source text: Example 7 was repeated wherein the lettuce leaves were sprayed with 5% trans-β-ocimene in Tween 20 and the anti-feedant properties tested on the garden snail H. aspersa.
5 and 10% Ocimene and Bisabolol (H. aspersa)

[5] = test system: D. reticulatum; test: Spray trial, lettuce leaves on peat soil (Example 7); type: in vivo, Deroceras reticulatum; settings: 3% in water, 24 hours
Procedure: To evaluate the efficacy of trans-β-ocimene emulsions using peat substrates lettuce leaves were sprayed with 12 ml of an aqueous ocimene emulsion (3%). Once sprayed the leaves were placed in plastic trays containing peat soil and left for 30 minutes to remove the excess liquid drops. After this time period two adult slugs, previously starved for 24 hours, were added to each plastic tray and left for 24 hours.
A control (water) was treated similarly. Four replicates were prepared for each treatment.
Repellency indices were calculated as described for the leaf disc bioassay.

[6] = test system: D. reticulatum slugs; test: Spray trial (controlled temperature units) monitored over 7 days (Example 9); type: in vivo; settings: for % Leaf Damage: 5% oil emulsion spray; for % Mortality: 5% spray
Source text: The same spray trial as in the previous examples was repeated and leaf damage monitored for 7 days.
Spray Trial (Controlled Temperature Units) Monitoring Leaf Damage Over 7 Days (D. reticulatum)
Spray Trial (Controlled Temperature Units) Monitoring Mortality Over 7 Days (D. reticitlatum)

[7] = test system: cyprid larvae of the marine barnacle Balanus amphitrite; test: Barnacle settlement in multi-welled plates, extract evaporated to dryness; type: in vivo; settings: top two doses, 24 hrs
Procedure: The settlement of the barnacle Balanus Amphitrite was tested in multi-welled plates in the laboratory. Myrrh and scented Myrrh were extracted in ethanol and 2 ml aliquots from a range of concentrations (50% v/v to 1.5% v/v) were evaporated to dryness in each well of a multi welled plate. Ethanolic trans-β-Ocimene a component of scented Myrrh was also applied in the manner over a range of concentrations (50% v/v to 1.5-% v/v). After evaporation saltwater containing active cyprid larvae was introduced to each well and their settlement and activity measured after 24 hrs.

[8] = test system: Balanus amphitrite day 3 cyprids; test: Barnacle settlement repeated, cyprids incubated in 10^−5-10^−9M; type: in vivo; settings: after 24 hr
Procedure: The barnacle settlement experiments were repeated; however, this time 10 Balanus amphitrite day 3 cyprids were incubated in varying concentrations (10^−5-10^−9M) of trans-β-ocimene at 28° C. in dark conditions. Each concentration was replicated four times, with a control run. The number of cyprids that had settled, still active, floating on the surface meniscus or dead was counted after 24 and 48 hr incubations. Results are expressed as a % of the total cyprid number in each well minus floating cyprids, as these were unable to settle. Values are expressed as mean ±SEM. The amount of settlement at each concentration was compared to the control settlement using an unpaired t-test.

[9] = test system: garden snail H. aspersa; test: Spray trial with ocimene and bisabolol formulations (Example 8); type: in vivo; settings: 1% in aq. Tween 20 (1%)

With `C=C1CC/C=C(\C)CC[C@@H]2[C@@H]1CC2(C)C` [Carophyllene] the “Corrected Mortality” value ([1]; 0.96% in ethanol) was 15% and the “Repellency Index” value ([1]; 0.96% in ethanol) was 40%.
For `C=C(C)C1CC=C(C)C(=O)C1` (stereo not shown) [Carvone, carvone], the “time to induce death” value [2] is listed as 2 days and the molluscicidal activity [3] is listed as “potent molluscicides”.
In the case of `C=C1/C=C/C(C(C)C)CC/C(C)=C/CC1` (stereo not shown) [Germacrene D], the “Corrected Mortality” value ([1]; 0.4% in ethanol) was 0% and the “Repellency Index” value ([1]; 0.4% in ethanol) was 77%.
With `CC(C)=CCC/C(C)=C/CC/C(C)=C\CO` [cis, trans farnesol] the “Corrected Mortality” value ([1]; 0.95% in ethanol) was 0% and the “Repellency Index” value ([1]; 0.95% in ethanol) was 77%.
With `C=C/C(C)=C\CC=C(C)C` [cis-β-Ocimene] the “Repellency Index” value ([1]; 0.35% in Aq. Tween 80 (0.2%)) was 84%, the “Corrected Mortality” value ([1]; in vivo) was 15% and the mortalities ([1]; in vivo) was “Low”. For the same molecule, the “amount of lettuce leaf consumed was reduced” value [1] was 84%.
In the case of `CC1CCC(C(C)C)C(O)C1` (stereo not shown) [menthol], the mollusc repellent activity [3] is given as “effective mollusc repellents” and the molluscicidal activity [3] is given as “potent molluscicides”.
For `CC(C)[C@@H]1CC[C@@H](C)CC1=O` [menthone], the molluscicidal activity [3] is listed as “potent molluscicides”.
In the case of `Cc1ccc(C(C)C)c(O)c1` [thymol], the mollusc repellent activity [3] is listed as “effective mollusc repellents”.
With `CC(C)=CCC/C(C)=C/CC/C(C)=C/CO` [trans, trans farnesol] the “Repellency Index” value ([1]; 0.96% in ethanol) was 96% and the “Corrected Mortality” value ([1]; in vivo) was 0%.
For `C=C/C(C)=C/CC=C(C)C` [trans-β-Ocimene], the “% Leaf Damage ± SEM” value ([4]; 5% in Water) was 79 ± 9 NS %, the “% Mortality ± SEM” value ([4]; 5% in Water) was 0% and the “Repellency Index” value ([4]; 5% in Water) was 21. For the same molecule, the “% Leaf Damage ± SEM” value ([4]; 5% in aq. Synperonic (0.025%)) was 2 ± 2 %, the “% Mortality ± SEM” value ([4]; 5% in aq. Synperonic (0.025%)) was 17 ± 7 % and the “Repellency Index” value ([4]; 5% in aq. Synperonic (0.025%)) was 98. The “% Leaf Damage ± SEM” value ([4]; 5% in aq. Synperonic (5%)) was 0 ± 0 %, the “% Mortality ± SEM” value ([4]; 5% in aq. Synperonic (5%)) was 0% and the “Repellency Index” value ([4]; 5% in aq. Synperonic (5%)) was 100. For the same molecule, the “% Leaf Damage ± SEM” value ([4]; 5% in aq. Tween 20 (5%)) was 0 ± 0 %, the “% Mortality ± SEM” value ([4]; 5% in aq. Tween 20 (5%)) was 0% and the “Repellency Index” value ([4]; 5% in aq. Tween 20 (5%)) was 100. The “% Leaf Damage ± SEM” value ([4]; 10% in Water) was 0 ± 0 %, the “% Mortality ± SEM” value ([4]; 10% in Water) was 5% and the “Repellency Index” value ([4]; 10% in Water) was 100. For the same molecule, the Leaf damage ([5]; 12 ml spray, single replicates 1-4) was 18.69% and 9.33% and 0.00% and 0.99%, the “Repellency Indices” value [5] was 76.5% and the “Mean Leaf damage” value ([5]; four replicates) was 7.25%. For the same molecule, the “Repellency Indices” value ([5]; listed as trans-β-ocimene) was 77%, the mortality ([5]; peat containers) was “No mortality” and the “% Leaf Damage” value ([6]; Day 1) was 0%. For the same molecule, the “% Leaf Damage” value ([6]; Day 2) was 0%, the “% Leaf Damage” value ([6]; Day 3) was 0% and the “% Leaf Damage” value ([6]; Day 4) was 0%. For the same molecule, the “% Leaf Damage” value ([6]; Day 5) was 0%, the “% Leaf Damage” value ([6]; Day 6) was 0% and the “% Leaf Damage” value ([6]; Day 7) was 0%. The “% Mortality” value ([6]; Day 1) was 67%, the “% Mortality” value ([6]; Day 2) was 80 ± 12% and the “% Mortality” value ([6]; Day 3) was 87 ± 7%. The “% Mortality” value ([6]; Day 4) was 87 ± 7%, the “% Mortality” value ([6]; Day 5) was 93 ± 7% and the “% Mortality” value ([6]; Day 6) was 93 ± 7%. For the same molecule, the “% Mortality” value ([6]; Day 7) was 93 ± 7%, the state of larvae [7] was “all floating on the surface but were ‘mutated’” and the inhibition of settlement ([8]; 10^−5-10^−9M, 28° C., dark) was “inhibition of settlement in a reverse dose-dependent manner”. For the same molecule, the “settlement compared to the control (unpaired t-test)” value ([8]; lowest concentration (10^−9M)) was “statistically different from the control”, the “Corrected Mortality” value ([1]; 0.1% in ethanol) was 0% and the “Repellency Index” value ([1]; 0.1% in ethanol) was 5%. For the same molecule, the “Corrected Mortality” value ([1]; 0.22% in Aq. Dmso (10%)) was 0%, the “Repellency Index” value ([1]; 0.22% in Aq. Dmso (10%)) was 2% and the “Corrected Mortality” value ([1]; 0.45% in Aq. Dmso (2.5%)) was 20%. For the same molecule, the “Repellency Index” value ([1]; 0.45% in Aq. Dmso (2.5%)) was 91%, the “Corrected Mortality” value ([1]; 0.45% in Aq. Dmso (10%)) was 70% and the “Repellency Index” value ([1]; 0.45% in Aq. Dmso (10%)) was 90%. The “Corrected Mortality” value ([1]; 0.45% in Aq. Tween 80 (0.2%)) was 20%, the “Repellency Index” value ([1]; 0.45% in Aq. Tween 80 (0.2%)) was 91% and the “Corrected Mortality” value ([1]; 0.45% in Aq. Tween 80 (0.5%)) was 10%. For the same molecule, the “Repellency Index” value ([1]; 0.45% in Aq. Tween 80 (0.5%)) was 73%, the “Corrected Mortality” value ([1]; 0.45% in Water) was 90% and the “Repellency Index” value ([1]; 0.45% in Water) was 100%. The “Corrected Mortality” value ([1]; 0.45% in ethanol, 24 hours) was 0%, the “Repellency Index” value ([1]; 0.45% in ethanol, 24 hours) was 35% and the “Corrected Mortality” value ([1]; 0.90% in Aq. Dmso (10%)) was 75%. For the same molecule, the “Repellency Index” value ([1]; 0.90% in Aq. Dmso (10%)) was 92%, the “Corrected Mortality” value ([1]; 0.9% in ethanol) was 5% and the “Repellency Index” value ([1]; 0.9% in ethanol) was 95%. The “Corrected Mortality” value ([1]; 2.7% in Aq. Dmso (10%)) was 95%, the “Repellency Index” value ([1]; 2.7% in Aq. Dmso (10%)) was 100% and the mortalities ([1]; Examples 2 and 4, aqueous tween 80) was “Low”. For the same molecule, the slug mortality ([1]; pure oil, immediately on contact) was 100% and the “amount of lettuce leaf consumed was reduced” value [1] was 73%.
In the case of `CC(C)=CCC[C@](C)(O)C1CC=C(C)CC1` (stereo partly drawn) [α-bisabolol], the “Repellency Index” value ([4]; 1% in aq. Tween 20 (1%)) was 90, the “% Mortality ± SEM” value ([4]; in vivo) was 0% and the “% Leaf Damage ± SEM” value [9] was 10 ± 0%.
With `C=C/C(C)=C/C/C=C(\C)CCC=C(C)C` [α-farnesene] the “Repellency Index” value ([1]; 0.7% in ethanol) was 60% and the “Repellency Index” value ([1]; 2.7% in ethanol) was 97%.
In the case of `CC1=CCC(C(C)(C)O)CC1` (stereo not drawn) [α-terpineol], the mollusc repellent activity [3] is listed as “effective mollusc repellents”.
For `CC(C)=CCC/C(C)=C1/CC=C(C)CC1` [γ-bisabolene], the “Corrected Mortality” value ([1]; 0.7% in ethanol) was 0% and the “Repellency Index” value ([1]; 0.7% in ethanol) was 70%.
